The text below walks through data of patent US10077293B2, “Antimicrobial peptide analogues derived from abalone (Haliotis discus) and antimicrobial pharmaceutical composition containing the same” (priority 2016, dated 2018).

The subject of one data set is E. coli D31. Put plainly: Ultrasensitive radial diffusion assay (URDA), antimicrobial activity. The format is cell-based. Conditions: E. coli D31, Gram −. The procedure:
(§1) Four species of Gram positive bacteria (Bacillus subtilis, Staphylococcus epidermidis, […] and Propionibacterium acnes), five species of Gram negative bacteria (E. coli D31, E. coli ML35p, Shigella flexneri, Pseudomonas aeruginosa and Vibrio parahaemolyticus) and one yeast species (Candida albicans) were used for experiments. The antimicrobial activity was measured by ultrasensitive radial diffusion assay (URDA) using two layers of media of different concentrations. First, the microorganisms were pre-cultured in each medium for 18 hours and the concentration of the microorganisms was adjusted to 84% T (≈1×10^8 CFU/mL) using a colorimeter (Product No. 52-1210, BioMerieux, Inc., USA). Then, 0.5 mL of the diluted microorganism solution was added to an underlay gel containing 9.5 mL of 0.03% TSB, 1% type I agarose and 10 mM phosphate buffer (PB; pH 6.5) and plated and solidified on a plate after mixing well. After boring a well with a diameter of 2.5 mm on the solidified plate using a punch, 5 μL of each analogue solution was introduced. All the analogues were dissolved in 5 μL of 0.01% acetic acid to avoid any effect of solvent. After the analogue permeated into the medium, the microorganisms were cultured for 3 hours and an overlay gel containing 10 mL of 6% TSB, 1% type I agarose and 10 mM phosphate buffer (pH 6.5) was poured and solidified. Then, the microorganisms were cultured again for 18 hours at the same temperature. Next day, the antimicrobial activity was determined by measuring the size (diameter) of a clear zone formed around the well. Piscidin 1, an antimicrobial peptide derived from the mast cells of a hybrid striped bass, was used as a control.

Data set [1] deals with Propionibacterium acnes KCTC11946. Described as above. As to conditions: Propionibacterium acnes KCTC11946, Gram +. The format is cell-based. The procedure: as §1
Data set [2] deals with Vibrio parahaemolyticus KCCM42264. The data set is described as above. The data set is classed as cell-based. As for the experimental part:
as §1

Data set [3] deals with Shigella flexneri KCTC2009. The description is as above. As to conditions: Shigella flexneri KCTC2009, Gram −. The data set is classed as cell-based. As for the experimental part:
as §1

Data set [4] deals with E. coli ML35p. The data set is described as above. The data set is classed as cell-based. Conditions: Gram −. The procedure: as §1
A further data set has as its system P. aeruginosa KCTC2004. The description is as above. The data set is classed as cell-based, Pseudomonas aeruginosa. As to conditions: P. aeruginosa KCTC2004, Gram −. As for the experimental part: as §1
The subject of the next data set is B. subtilis KCTC1021. The data set is described as above. The data set is classed as cell-based, Bacillus subtilis. Conditions: B. subtilis KCTC1021, Gram +. As for the experimental part: as §1
The subject of another data set is S. epidermidis KCTC1917. The data set is described as above. The format is cell-based, Staphylococcus epidermidis. As to conditions: S. epidermidis KCTC1917, Gram +. The procedure: as §1
In a further data set the test system is S. mutans KCCM40105. The data set is described as above. The data set is classed as cell-based, Streptococcus mutans. Conditions: S. mutans KCCM40105, Gram +. As for the experimental part:
as §1

The next data set concerns C. albicans. The description is as above. The format is cell-based, Candida albicans. The procedure:
as §1

Another data set deals with human red blood cells. The data set is classed as cell-based. As for the experimental part:
Hemolytic activity was measured using human red blood cells. After adding to human blood an equal amount of phosphate buffered saline (PBS, 50 mM sodium phosphate, 150 mM NaCl, pH 7.4), mixing and centrifuging at 8000×g and 4° C. for 1 minute, the supernatant was removed and the remaining red blood cells were washed 3 times. The red blood cells were added to PBS to a concentration of 3% hematocrit. In order to measure the hemolytic activity, 90 μL of the 3% hematocrit was introduced to an e-tube and then 10 μL of each analogue solution (×10) was added. After incubation of each e-tube at 37° C. for 1 hour, centrifugation was performed at 13,000×g and 4° C. for 10 minutes. After taking 70 μL from each supernatant and transferring to a 96-well microtiter plate, release of hemoglobin was measured at 405 nm. Triton X-100 (0.1%) was used as a control group for 100% lysis of red blood cells and the hemolytic activity was calculated according to the following equation. % Hemolysis=[(Abs 405 nm in the peptide solution−Abs 405 nm in buffer)/(Abs 405 nm in 0.1% Triton X-100−Abs 405 nm in buffer)]×100

The subject of data set [5] is E. coli ML35p. Put plainly: Chromogenic bacteriolytic plate assay. The data set is classed as cell-based. As to conditions: E. coli ML35p (FIG. 6). As for the experimental part:
In order to investigate the lytic activity of the analogues for bacterial membrane, chromogenic bacteriolytic plate assay was conducted using E. coli ML35p containing a chromosomal IPTG-inducible β-galactosidase gene (Mardones, G., Venegas, A. Chromogenic plate assay distinguishing bacteriolytic from bacteriostatic activity of an antibiotic agent. J Microbiol Methods. 2000, 40(3), 199-206). After inoculating 2 mL of E. coli ML35p to TSB and culturing at 37° C. for 16-18 hours, a mixture of 50 μL of the cultured microorganism solution, 10 μL of 1 mM IPTG and 50 μL of 50 mg/mL X-gal was poured onto TSB containing 0.8% agarose at 42° C. the next day. After boring a well on the solidified plate, 5 μL of each peptide analogue solution was introduced and incubation was conducted for 3 hours. Then, after pouring 2×TSB containing 10 mL of 1.5% agarose to the plate and solidifying, incubation was conducted again for 16-18 hours. After the incubation, the size (diameter) of a clearing zone and the presence or absence of a blue line at the edge portion were investigated.

Setting [6] is: C. albicans KCCM42264 (as printed in Table 2), yeast.

Ends that are not written are not given here.

Regarding “LLWKLLKLLLK-NH2 [SEQ ID NO 2, LLWKLLKLLLK]”, the Minimal effective concentration in the data set with E. coli D31 was 16.2 µg/mL; in [1], 18.0 µg/mL; in data set [2], 14.0 µg/mL; in data set [3], 11.6 µg/mL; with E. coli ML35p [4] it was 12.1 µg/mL; in the data set with P. aeruginosa KCTC2004 it was 14.2 µg/mL. Also, the Minimal effective concentration in the data set with B. subtilis KCTC1021 was found to be 16.0 µg/mL; in the data set with S. epidermidis KCTC1917, 18.4 µg/mL; with S. mutans KCCM40105, 16.3 µg/mL; in the data set with C. albicans (setting [6]), 17.0 µg/mL.

As for “KLALKLLKLL-NH2 [SEQ ID NO 5, KLALKLLKLL]”, the Minimal effective concentration in the data set on E. coli D31 stood at 17.5 µg/mL; in data set [1], 16.6 µg/mL; in data set [2] it was 8.1 µg/mL; in data set [3] it was 17.9 µg/mL; in the data set on P. aeruginosa KCTC2004 it was 19.9 µg/mL; in the data set on B. subtilis KCTC1021, 15.2 µg/mL. Further, the Minimal effective concentration was determined as 16.4 µg/mL in the data set on S. epidermidis KCTC1917; 10.5 µg/mL in the data set on S. mutans KCCM40105; 14.4 µg/mL with C. albicans (C. albicans KCTC7965, yeast).

Consider LLWKLLKKL [SEQ ID NO 4, LLWKLLKKL], for which the “hemolytic activity (in words, FIG. 4)” value with human red blood cells is “good hemolytic activity”.

Take KWLLKLLKKL [SEQ ID NO 10, KWLLKLLKKL]: the “hemolytic activity (in words, FIG. 4)” value in the data set with human red blood cells was “good hemolytic activity”.

With “LLWKLLKKLLK-NH2 [SEQ ID NO 3, LLWKLLKKLLK]”, the Minimal effective concentration was determined as 19.4 µg/mL in the data set with E. coli D31; 14.5 µg/mL in [1]; 9.1 µg/mL in data set [2]; 10.0 µg/mL in [3]; 13.8 µg/mL with E. coli ML35p [4]; 15.2 µg/mL in the data set on P. aeruginosa KCTC2004. Besides, the Minimal effective concentration worked out at 14.0 µg/mL in the data set on B. subtilis KCTC1021, 17.2 µg/mL in the data set with S. epidermidis KCTC1917, 15.8 µg/mL in the data set on S. mutans KCCM40105 and 15.0 µg/mL with C. albicans (setting [6]).

On to “KLLLKLLKLL-NH2 [SEQ ID NO 7, KLLLKLLKLL]”, for which the Minimal effective concentration in the data set on E. coli D31 came to 13.2 µg/mL; in data set [1] it was 11.9 µg/mL; in [2], 6.8 µg/mL; in [3], 10.4 µg/mL; in the data set with E. coli ML35p [4], 8.8 µg/mL; in the data set on P. aeruginosa KCTC2004 it was 11.2 µg/mL. The Minimal effective concentration in the data set with B. subtilis KCTC1021 is 11.2 µg/mL; with S. epidermidis KCTC1917 it was 8.8 µg/mL; in the data set with S. mutans KCCM40105, 7.8 µg/mL; in the data set on C. albicans (C. albicans KCTC7965, yeast) it was 12.1 µg/mL.

“AAWKLLKALAKA-NH2 [SEQ ID NO 1, AAWKLLKALAKA]”: the Minimal effective concentration with E. coli D31 was 22.0 µg/mL; in data set [1] it was 25.0 µg/mL; in [2], 26.3 µg/mL; in [3] it was 28.0 µg/mL; in the data set with E. coli ML35p [4] it was 23.0 µg/mL; with P. aeruginosa KCTC2004, 36.0 µg/mL. The Minimal effective concentration came to 20.0 µg/mL with B. subtilis KCTC1021, 17.3 µg/mL with S. epidermidis KCTC1917, 20.3 µg/mL with S. mutans KCCM40105 and 42.0 µg/mL in the data set on C. albicans (setting [6]).

In the case of “KLLLKLLKKLL-NH2 [SEQ ID NO 8, KLLLKLLKKLL]”, the Minimal effective concentration in the data set on E. coli D31 amounted to 14.2 µg/mL; in data set [1] it was 12.3 µg/mL; in data set [2] it was 7.1 µg/mL; in [3] it was 10.7 µg/mL; in the data set with E. coli ML35p [4], 9.8 µg/mL; in the data set with P. aeruginosa KCTC2004, 12.5 µg/mL. For the same compound, the Minimal effective concentration came out at 10.3 µg/mL in the data set with B. subtilis KCTC1021; 9.6 µg/mL in the data set with S. epidermidis KCTC1917; 7.4 µg/mL in the data set with S. mutans KCCM40105; 11.8 µg/mL with C. albicans (C. albicans KCTC7965, yeast).

For `[H]/N=C(/N)N[C@H]1[C@H](O)[C@@H](O)[C@H](O[C@@H]2O[C@@H](C)[C@](O)(C=O)[C@H]2O[C@@H]2O[C@@H](CO)[C@H](O)[C@@H](O)[C@@H]2NC)[C@@H](N/C(N)=N\[H])[C@@H]1O` [streptomycin], in the data set on E. coli ML35p [5], the “bacteriolytic activity: blue line at the edge portion of the clearing zone” value was “showed a blue line at the edge portion”.

For the compound “KLLKKLLKLL-NH2 [SEQ ID NO 9, KLLKKLLKLL]”, the Minimal effective concentration in the data set with E. coli D31 is 18.9 µg/mL; in [1], 18.5 µg/mL; in data set [2], 9.5 µg/mL; in [3], 15.4 µg/mL; with E. coli ML35p [4] it was 17.2 µg/mL; in the data set with P. aeruginosa KCTC2004 it was 17.8 µg/mL. The Minimal effective concentration in the data set with B. subtilis KCTC1021 worked out at 15.7 µg/mL; in the data set with S. epidermidis KCTC1917 it was 14.0 µg/mL; with S. mutans KCCM40105, 9.0 µg/mL; with C. albicans (C. albicans KCTC7965, yeast) it was 14.0 µg/mL.

Take “LKWLLKLLKLK-NH2 [SEQ ID NO 11, LKWLLKLLKLK]”: the Minimal effective concentration in the data set on E. coli D31 amounted to 14.1 µg/mL; in data set [1], 13.1 µg/mL; in data set [2] it was 9.0 µg/mL; in data set [3], 11.2 µg/mL; in the data set with E. coli ML35p [4] it was 15.0 µg/mL; with P. aeruginosa KCTC2004, 8.7 µg/mL. Besides, the Minimal effective concentration in the data set on B. subtilis KCTC1021 is 12.1 µg/mL; in the data set with S. epidermidis KCTC1917, 16.0 µg/mL; in the data set with S. mutans KCCM40105, 12.0 µg/mL; in the data set on C. albicans (C. albicans KCTC7965, yeast), 10.0 µg/mL.

Regarding “KAAAKAAKAA-NH2 (C-terminus assumed) [SEQ ID NO 6, KAAAKAAKAA]”, the Minimal effective concentration (in the data set on E. coli D31; in data set [1]; in [2]; in [3]; in the data set with E. coli ML35p [4]; in the data set on P. aeruginosa KCTC2004) was >50.0 µg/mL each time. The Minimal effective concentration is >50.0 µg/mL with B. subtilis KCTC1021; >50.0 µg/mL in the data set with S. epidermidis KCTC1917; >50.0 µg/mL in the data set on S. mutans KCCM40105; >50.0 µg/mL in the data set with C. albicans (C. albicans KCTC7965, yeast).
